Consider 28 substances from patent publication US9976141B2, “Compositions and methods for inhibiting gene expression of Hif2alpha” (Arrowhead Madison Inc., priority 2015, dated 2018).

In this series the test system is human EPAS1 (Hif2α) cDNA in psiCHECK2 (Renilla luciferase/EPAS1 fusion mRNA) in Hep3B cells. Put plainly: Efficacy screen of Hif2α RNAi triggers in vitro, dual-luciferase reporter assay (1 nM and 0.1 nM). Type of series: cell-based. Conditions: Hep3B cells co-transfected with EPAS1-psiCHECK2, Renilla luciferase normalized to firefly luciferase. The procedure, abridged:
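Knockdown read by dual-luciferase assay: Renilla signal from the Renilla/EPAS1 fusion transcript divided by firefly luciferase expressed from the same plasmid. Triggers (modified canonical siRNAs, 1 nM or 0.1 nM) were co-transfected with 25 ng reporter plasmid per well into human hepatocellular carcinoma Hep3B cells.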
(In general: Reporter assays use an easily measured gene product as a stand-in for the process of interest.)

Strand notation (5' to 3'): a small letter for the sugar, then the base; units joined by * are phosphorothioate-linked, units joined directly phosphodiester-linked; [ ] holds rarer units or linkages, { } end groups; capitals alone tell only the bases. d = 2'-deoxy (DNA); m = 2'-O-methyl; f = 2'-fluoro

For the substance “2289 (sense fUmUfUmGfAmUfAmGfCmAfGmUfGmGfCmAfAmGfAdT; antisense dTfCmUfUmGfCmCfAmCfUmGfCmUfAmUfCmAfAmAdT*dT; siRNA) [compound 2289]”, the “Relative Rluc-Hif2α” value is listed as 0.992 ± 0.153 (0.1 nM RNAi trigger) and 1.039 ± 0.146 (1 nM RNAi trigger).
The matching figures for “2251 (sense fUmCfAmCfUmCfAmUfCmCfCmUfGmCfGmAfCmCfAdT; antisense dTfGmGfUmCfGmCfAmGfGmGfAmUfGmAfGmUfGmAdT*dT; siRNA) [compound 2251]”: 0.857 ± 0.087 and 0.872 ± 0.121.
The matching figures for “2345 (sense fCmCfAmAfCmGfUmAfUmGfUmGfGmUfUmAfUmCfAdT; antisense dTfGmAfUmAfAmCfCmAfCmAfUmAfCmGfUmUfGmGdT*dT; siRNA) [compound 2345]”: 0.296 ± 0.096 and 0.129 ± 0.026.
For “2253 (sense fUmUfCmGfUmGfAmGfAmAfCmCfUmGfAmGfUmCfAdT; antisense dTfGmAfCmUfCmAfGmGfUmUfCmUfCmAfCmGfAmAdT*dT; siRNA) [compound 2253]” the same measures were 0.646 ± 0.144 and 0.564 ± 0.043.
“2406 (sense fUmCfAmAfCmGfUmAfAmCfGmAfUmUfUmCfAmUfAdT; antisense dTfAmUfGmAfAmAfUmCfGmUfUmAfCmGfUmUfGmAdT*dT; siRNA) [compound 2406]”: the “Relative Rluc-Hif2α” value is, setting by setting: (0.1 nM RNAi trigger) 0.241 ± 0.022; (1 nM RNAi trigger) 0.168 ± 0.044.
The matching figures for “2376 (sense fGmAfUmGfGmUfCmUfUmUfCmAfCmAfCmGfGmCfAdT; antisense dTfGmCfCmGfUmGfUmGfAmAfAmGfAmCfCmAfUmCdT*dT; siRNA) [compound 2376]”: 0.546 ± 0.115 and 0.228 ± 0.029.
The matching figures for “2365 (sense fCmUfGmAfUmGfGmCfAmCfGmUfUmGfUmGfGmGfAdT; antisense dTfCmCfCmAfCmAfAmCfGmUfGmCfCmAfUmCfAmGdT*dT; siRNA) [compound 2365]”: 1.132 ± 0.107 and 1.259 ± 0.247.
The matching figures for “2260 (sense fCmAfCmCfAmAfCmAfGmAfGmGfCmCfGmUfAmCfAdT; antisense dTfGmUfAmCfGmGfCmCfUmCfUmGfUmUfGmGfUmGdT*dT; siRNA) [compound 2260]”: 0.861 ± 0.031 and 1.030 ± 0.187.
On to “2387 (sense fAmUfAmCfCmAfAmUfUmAfCmAfUmGfGmAfAmCfAdT; antisense dTfGmUfUmCfCmAfUmGfUmAfAmUfUmGfGmUfAmUdT*dT; siRNA) [compound 2387]”, for which the “Relative Rluc-Hif2α” value is given as 0.436 ± 0.028 (0.1 nM RNAi trigger) and 0.201 ± 0.063 (1 nM RNAi trigger).
Turning to “2392 (sense fCmAfUmUfAmAfGmGfGmCfAmUfUmUfUmAfCmCfAdT; antisense dTfGmGfUmAfAmAfAmUfGmCfCmCfUmUfAmAfUmGdT*dT; siRNA) [compound 2392]”, the “Relative Rluc-Hif2α” value is, setting by setting: (0.1 nM RNAi trigger) 0.636 ± 0.039; (1 nM RNAi trigger) 0.283 ± 0.052.
The matching figures for “2310 (sense fUmUfUmGfGmGfCmCfCmAfCmAfAmAfGmUfGmGfAdT; antisense dTfCmCfAmCfUmUfUmGfUmGfGmGfCmCfCmAfAmAdT*dT; siRNA) [compound 2310]”: 0.785 ± 0.122 and 0.923 ± 0.101.
The matching figures for “2334 (sense fUmUfUmUfUmCfUmGfAmGfAmUfGmCfUmCfAmCfAdT; antisense dTfGmUfGmAfGmCfAmUfCmUfCmAfGmAfAmAfAmAdT*dT; siRNA) [compound 2334]”: 0.672 ± 0.082 and 0.389 ± 0.044.
The matching figures for “2346 (sense fAmAfCmGfUmAfUmGfUmGfGmUfUmAfUmCfUmGfAdT; antisense dTfCmAfGmAfUmAfAmCfCmAfCmAfUmAfCmGfUmUdT*dT; siRNA) [compound 2346]”: 0.523 ± 0.133 and 0.273 ± 0.012.
On to “2263 (sense fAmAfUmAfGmUfCmUfGmUfGmUfGmGfCmUfAmCfAdT; antisense dTfGmUfAmGfCmCfAmCfAmCfAmGfAmCfUmAfUmUdT*dT; siRNA) [compound 2263]”, for which the “Relative Rluc-Hif2α” value runs as follows: (0.1 nM RNAi trigger) 1.126 ± 0.083; (1 nM RNAi trigger) 0.875 ± 0.059.
For “2232 (sense fCmUfCmCfGmAfCmUfCmCfUmUfCmCfGmAfCmUfAdT; antisense dTfAmGfUmCfGmGfAmAfGmGfAmGfUmCfGmGfAmGdT*dT; siRNA) [compound 2232]” the same measures were 0.684 ± 0.061 and 0.468 ± 0.032.
For “2247 (sense fGmCfUmAfAmCfAmGfGmAfCmAfUmAfGmUfAmUfAdT; antisense dTfAmUfAmCfUmAfUmGfUmCfCmUfGmUfUmAfGmCdT*dT; siRNA) [compound 2247]”, the “Relative Rluc-Hif2α” value runs as follows: (0.1 nM RNAi trigger) 0.439 ± 0.082; (1 nM RNAi trigger) 0.231 ± 0.048.
The matching figures for “2292 (sense fCmUfGmCfUmCfCmAfCmGfCmCfCmAfAmUfAmGfAdT; antisense dTfCmUfAmUfUmGfGmGfCmGfUmGfGmAfGmCfAmGdT*dT; siRNA) [compound 2292]”: 1.135 ± 0.048 and 0.832 ± 0.000.
The matching figures for “2315 (sense fGmGfCmUfCmGfAmGfGmCfCmCfAmGfAmCfGmUfAdT; antisense dTfAmCfGmUfCmUfGmGfGmCfCmUfCmGfAmGfCmCdT*dT; siRNA) [compound 2315]”: 0.781 ± 0.206 and 0.876 ± 0.099.
The matching figures for “2276 (sense fGmUfAmAfGmUfGmGfCmCfAmGfUmAfCmCfGmGfAdT; antisense dTfCmCfGmGfUmAfCmUfGmGfCmCfAmCfUmUfAmCdT*dT; siRNA) [compound 2276]”: 0.543 ± 0.029 and 0.330 ± 0.080.
In the case of “2404 (sense fCmUfGmUfCmAfAmCfGmUfAmAfCmGfAmUfUmUfAdT; antisense dTfAmAfAmUfCmGfUmUfAmCfGmUfUmGfAmCfAmGdT*dT; siRNA) [compound 2404]”, the “Relative Rluc-Hif2α” value runs as follows: (0.1 nM RNAi trigger) 0.234 ± 0.045; (1 nM RNAi trigger) 0.104 ± 0.019.
The matching figures for “2388 (sense fCmCfAmAfCmUfAmUfUmUfAmGfUmAfAmGfCmCfAdT; antisense dTfGmGfCmUfUmAfCmUfAmAfAmUfAmGfUmUfGmGdT*dT; siRNA) [compound 2388]”: 0.901 ± 0.318 and 0.436 ± 0.021.
The matching figures for “2403 (sense fCmCfUmGfUmCfAmAfCmGfUmAfAmCfGmAfUmUfAdT; antisense dTfAmAfUmCfGmUfUmAfCmGfUmUfGmAfCmAfGmGdT*dT; siRNA) [compound 2403]”: 0.930 ± 0.132 and 0.568 ± 0.106.
For “2344 (sense fUmCfCmAfAmCfGmUfAmUfGmUfGmGfUmUfAmUfAdT; antisense dTfAmUfAmAfCmCfAmCfAmUfAmCfGmUfUmGfGmAdT*dT; siRNA) [compound 2344]” the same measures were 0.570 ± 0.071 and 0.276 ± 0.033.
On to “2266 (sense fCmUfGmAfUmUfGmGfUmUfAmCfCmAfCmCfCmUfAdT; antisense dTfAmGfGmGfUmGfGmUfAmAfCmCfAmAfUmCfAmGdT*dT; siRNA) [compound 2266]”, for which the “Relative Rluc-Hif2α” value runs as follows: (0.1 nM RNAi trigger) 0.808 ± 0.062; (1 nM RNAi trigger) 0.368 ± 0.046.
The matching figures for “2256 (sense fGmCfGmGfGmAfCmUfUmCfUmUfCmAfUmGfAmGfAdT; antisense dTfCmUfCmAfUmGfAmAfGmAfAmGfUmCfCmCfGmCdT*dT; siRNA) [compound 2256]”: 0.796 ± 0.028 and 0.765 ± 0.124.
For “2246 (sense fGmAfGmCfUmAfAmCfAmGfGmAfCmAfUmAfGmUfAdT; antisense dTfAmCfUmAfUmGfUmCfCmUfGmUfUmAfGmCfUmCdT*dT; siRNA) [compound 2246]” the same measures were 0.509 ± 0.044 and 0.327 ± 0.042.
The matching figures for “2337 (sense fAmCfUmAfAmAfAmAfGmAfUmUfCmCfUmCfGmUfAdT; antisense dTfAmCfGmAfGmGfAmAfUmCfUmUfUmUfUmAfGmUdT*dT; siRNA) [compound 2337]”: 0.334 ± 0.066 and 0.131 ± 0.033.
Take “2354 (sense fCmCfAmUfAmGfGmUfGmUfGmAfCmAfAmUfCmCfAdT; antisense dTfGmGfAmUfUmGfUmCfAmCfAmCfCmUfAmUfGmGdT*dT; siRNA) [compound 2354]”: the “Relative Rluc-Hif2α” value turned out to be 1.043 ± 0.239 (0.1 nM RNAi trigger) and 0.741 ± 0.189 (1 nM RNAi trigger).
